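These data come from cells grown in 96-well plates and exposed to compound for 48 hours at five concentrations. GI50: concentration for 50% inhibition of growth.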 Active and inactive are the calls of the source. No stated cut-off is given here; in the data, active = GI50 up to about 1.1 µM and inactive = higher.
Columns and labels:
Experiment in all cases: NCI-60 cell line screen, 48 h
[1] = tested on: A498
[2] = tested on: A549
[3] = tested on: CCRF-CEM
[4] = tested on: HL-60
[5] = tested on: Hs-578T
[6] = tested on: IGROV-1
[7] = tested on: LOX IMVI
[8] = tested on: MCF7
[9] = tested on: MDA-N
[10] = tested on: MOLT-4
[11] = tested on: NCI-H226
[12] = tested on: NCI-H23
[13] = tested on: OVCAR-5
[14] = tested on: OVCAR-8
[15] = tested on: RXF 393
[16] = tested on: SF-268
[17] = tested on: SK-MEL-5
[18] = tested on: SN12C
[19] = tested on: U-251
[20] = tested on: UACC-257

Measured: GI50

COc1ccc(Nc2nnc(-c3nsc4ccccc34)s2)cc1
inactive: [1] 3.78 µM | [2] 27.4 µM | [3] 34.7 µM | [4] > 70.1 µM | [5] 21.9 µM | [6] > 100 µM | [7] 41.1 µM | [8] 81.3 µM | [9] 76 µM | [10] 46.5 µM | [11] 9.46 µM | [12] > 100 µM | [13] > 100 µM | [14] 49.8 µM | [15] 26.2 µM | [16] 33.5 µM | [17] > 84.3 µM | [18] > 61.4 µM | [19] > 47.1 µM | [20] > 100 µM

NNC(=O)CCC(NS(=O)(=O)c1ccc(Cl)cc1)C(=O)NN (stereo not given)
inactive: [1] > 100 µM | [2] > 100 µM | [3] > 100 µM | [4] > 100 µM | [5] > 100 µM | [6] > 100 µM | [7] > 100 µM | [8] > 100 µM | [9] > 100 µM | [10] > 100 µM | [11] > 100 µM | [12] > 100 µM | [13] > 100 µM | [14] > 100 µM | [15] > 100 µM | [16] > 100 µM | [17] > 100 µM | [18] > 100 µM | [19] > 100 µM | [20] > 100 µM

C/C(=N\Nc1cc(CN2CCCC2)c(-c2ccc(Cl)cc2)nn1)C(=O)O
inactive: [1] > 100 µM | [2] > 100 µM | [3] > 100 µM | [4] > 100 µM | [5] > 100 µM | [6] > 100 µM | [7] > 100 µM | [8] > 100 µM | [9] > 100 µM | [10] > 100 µM | [11] > 100 µM | [12] > 100 µM | [13] > 100 µM | [14] > 100 µM | [15] > 100 µM | [16] > 100 µM | [17] > 100 µM | [18] > 100 µM | [19] > 100 µM | [20] > 100 µM

CCCC(=O)OCC(COC(=O)CCC)OC(=O)CCC [TRIBUTYRIN]
inactive: [1] > 100 µM | [2] 96.6 µM | [3] 46.1 µM | [4] 33.3 µM | [5] 57.9 µM | [6] > 100 µM | [7] 82 µM | [8] > 100 µM | [9] 65.2 µM | [10] 73.5 µM | [11] > 100 µM | [12] > 100 µM | [13] 57.3 µM | [14] 62.4 µM | [15] > 100 µM | [16] > 100 µM | [17] 41.8 µM | [18] > 100 µM | [19] 53 µM | [20] 42.2 µM

COC(=O)/C=C(/C=C1/C(C#N)=C(N)N(c2ccc(Cl)cc2)C1(C)/C(=C\C(=O)OC)C(=O)OC)C(=O)OC (stereo not given)
inactive: [1] 44.8 µM | [2] 28.2 µM | [3] 16.3 µM | [4] 13.7 µM | [5] 42.8 µM | [6] 21.5 µM | [7] 17.1 µM | [8] 20.7 µM | [9] 16.2 µM | [10] 23.3 µM | [11] 24.1 µM | [12] 19.2 µM | [13] 21.3 µM | [14] 17.3 µM | [15] 19.2 µM | [16] 19.5 µM | [17] 15.1 µM | [18] 21.6 µM | [19] 26.1 µM | [20] 18.9 µM

O=S(=O)(c1ccc(Br)cc1)N1CCN(S(=O)(=O)c2ccc(Br)cc2)CC1
inactive: [1] > 100 µM | [2] > 100 µM | [3] > 100 µM | [4] > 100 µM | [5] > 100 µM | [6] > 100 µM | [7] > 100 µM | [8] > 100 µM | [9] > 100 µM | [10] 1.71 µM | [11] > 100 µM | [12] > 100 µM | [13] > 100 µM | [14] > 100 µM | [15] > 100 µM | [16] > 100 µM | [17] > 100 µM | [18] > 100 µM | [19] > 100 µM | [20] > 100 µM

COc1cc(/C=C2/CCCc3ccccc3C2=O)cc(OC)c1OC
inactive: [1] 7.89 µM | [2] 27 µM | [3] 4.19 µM | [4] 2.72 µM | [5] 18.2 µM | [6] 28.9 µM | [7] 15.4 µM | [8] 9.79 µM | [9] 9.53 µM | [10] 3.46 µM | [11] 9.62 µM | [12] 18.4 µM | [13] 30.6 µM | [14] 13.7 µM | [15] 28.9 µM | [16] 14.7 µM | [17] 3.27 µM | [18] 15.1 µM | [19] 15.5 µM | [20] 12.9 µM
